What was measured:
[1] = system: endoplasmic reticulum stress response (EUA activity) in 293A transformed cells; assay: Endoplasmic reticulum stress reporter (10×ERSE2-10×UPRE-5×AARE-EGFP) fluorescence under Tunicamycin; format: cell-based; conditions: for inhibition at 5 µM: 293A, read-out: Endoplasmic reticulum stress inhibition rate (Z)%; for Suppression of EUA activity (endoplasmic reticulum stress response activation) caused by Tunicamycin: FIG. 5
[2] = system: 293A transformed cell line; conditions: FIG. 8; for Cell proliferation on treatment with the stress inducer / cytotoxic compound alone: no test compound added
Procedure: It is noted that in addition to Tm, camptothecin (CPT) was also used as a compound to confer cytotoxicity, and this was used as a positive control for cell death. Cell proliferation rate was determined by obtaining bright field images using a high content confocal imaging system (PerkinElmer, Operetta CLS) at intervals of 4 hours after starting the experiment, and calculating cell density from the bright field image using an image analysis software Harmony (PerkinElmer).

[3] = system: 293A transformed cell line; assay: Lactate dehydrogenase (LDH) release (cytotoxicity) of Tm-treated 293A transformed cell line; format: cell-based; conditions: 43 hours, FIG. 10
Procedure: (§1) Intracellular ATP level or activity of lactate dehydrogenase (LDH), which is released from cells that have been damaged in the cell membrane, were measured in order to confirm the effect of Compound No. 1 against cell growth or cytotoxicity. […] Each were measured using an ATP assay kit (Promega, Celltiter-glo) and LDH activity measurement kit (Dojindo, Cytotoxicity LDH Assay Kit-WST) using a multiplate reader, Cytation 3 (Bio-Tek) according to the protocols of the kits (number of tests n=4).

[4] = system: 293A transformed cell line; assay: Intracellular ATP level (viability) of Tm-treated 293A transformed cell line; format: cell-based; conditions: Tm treatment; 43 hours; FIG. 9
Procedure: as §1

[5] = Compound concentration: 5 μM, Tm-induced, EGFP fluorescence

CS(=O)(=O)c1ccc2c(c1)sc1nc(-c3ccccc3Cl)cn12 [compound 12]
inhibition at 5 µM [1, 5]: 54%

Fc1ccccc1-c1cn2c(n1)sc1ccccc12 [compound 5]
inhibition at 5 µM [1, 5]: 79%

Tunicamycin [Tm]
Cell proliferation on treatment with the stress inducer / cytotoxic compound alone [2]: almost completely inhibited

CCCC(=O)NCCc1csc(-c2ccc(Cl)cc2)n1 [Azoramide]
LDH activity increased by Tm treatment, decreased to % of that of UT cells [3]: approximately 50%
Intracellular ATP level recovered, % of that of UT cells [4]: approximately 75%
Suppression of EUA activity (endoplasmic reticulum stress response activation) caused by Tunicamycin ([1]; 40 μM): had an inhibitory effect
Endoplasmic reticulum stress inhibition rate (Z)% [1, 5]: 0%
Cell proliferation recovered, % of that of UT cells ([2]; 40 μM, 0.2 μg/mL Tm): approximately 58%

Cc1ccc(-c2cn3c(n2)sc2cc(C(=O)NCCCN4CCOCC4)ccc23)cc1 [compound 11]
inhibition at 5 µM [1, 5]: 66%

Cc1ccc(-c2cn3c(n2)sc2cc(C(=O)NCCCN4CCCCC4C)ccc23)cc1 (centres unmarked) [compound 7]
inhibition at 5 µM [1, 5]: 95%

CC[C@@]1(O)C(=O)OCc2c1cc1n(c2=O)Cc2cc3ccccc3nc2-1 [camptothecin]
Cell proliferation on treatment with the stress inducer / cytotoxic compound alone [2]: almost completely inhibited

CCN(CC)CCCNC(=O)c1ccc2c(c1)sc1nc(-c3ccc(OC)cc3)cn12 [compound 6]
inhibition at 5 µM [1, 5]: 93%

COc1cccc(-c2cn3c(n2)sc2cc(C(=O)NCCCN4CCOCC4)ccc23)c1 [compound 8]
inhibition at 5 µM [1, 5]: 98%

O=C(NCCCN1CCCCC1)c1ccc2c(c1)sc1nc(-c3ccccc3)cn12 [compound 10]
inhibition at 5 µM [1, 5]: 41%

Clc1ccc(-c2cn3c(n2)sc2ccccc23)cc1 [compound 3]
inhibition at 5 µM [1, 5]: 101%

CCOC(=O)C1CCN(C(=O)c2ccc3c(c2)sc2nc(-c4ccc(OC)cc4)cn23)CC1 [compound 13]
inhibition at 5 µM [1, 5]: 60%

O=C([O-])CCCc1ccccc1.[Na+] [4PBA, Sodium 4-phenylbutyrate, reference compound]
inhibition at 5 µM [1, 5]: 0%
Suppression of EUA activity (endoplasmic reticulum stress response activation) caused by Tunicamycin ([1]; concentration not given): could not suppress

COC(=O)c1ccc2c(c1)sc1nc(-c3ccccc3)cn12 [compound 2]
inhibition at 5 µM [1, 5]: 100%

C[C@H](CCC(=O)NCCS(=O)(=O)O)[C@H]1CC[C@H]2[C@@H]3[C@@H](O)C[C@@H]4C[C@H](O)CC[C@]4(C)[C@H]3CC[C@]12C [TUDCA, Tauroursodeoxycholic Acid, reference compound]
inhibition at 5 µM [1, 5]: 0%
Suppression of EUA activity (endoplasmic reticulum stress response activation) caused by Tunicamycin ([1]; concentration not given): could not suppress

CCN(CC)CCCNC(=O)c1ccc2c(c1)sc1nc(-c3ccccc3)cn12 [compound 9]
inhibition at 5 µM [1, 5]: 61%

CCc1ccc(-c2cn3c(n2)sc2cc(C(=O)OC)ccc23)cc1 [compound 4]
inhibition at 5 µM [1, 5]: 99%
